From patent publication US4279915A, “Method of treatment using new leurosine derivatives” (priority 1973, dated 1981)

Tests used:
Harding Passey melanoma = conditions: cited from earlier work
[1] = acute toxicity in Swiss mice; assay type: in vivo, mouse; conditions: mouse, in vivo, Swiss mice
Text: ACUTE TOXICITY IN SWISS MICE
Table III lists the comparative toxicological data concerning Vincristine, Vinblastine and F-leurosine. The new analogue is approximately 7 times less toxic than Vincristine and 4 times less toxic than Vinblastine in acute rodent experiments.

cancer = conditions: animal tests and human therapy; cited from earlier work
rhabdomyo-sarcoma = conditions: cited from earlier work
VX-2 rabbit epitheloma = conditions: cited from earlier work

Row | SMILES | treatability with hitherto known cytostatics (Harding Passey melanoma) | LD50 ([1]; ip, 1 x i.p.) [mg/kg] | LD50 ([1]; iv, 1 x i.v.) [mg/kg] | activity relative to vinblastine (cancer) | treatability with hitherto known cytostatics (rhabdomyo-sarcoma) | treatability with hitherto known cytostatics (VX-2 rabbit epitheloma)
1 | CC[C@]1(O)C[C@H]2CN(CCc3c([nH]c4ccccc34)[C@@](C(=O)OC)(c3cc4c(cc3OC)N(C=O)[C@H]3[C@@](O)(C(=O)OC)[C@H](OC(C)=O)[C@]5(CC)C=CCN6CC[C@]43[C@@H]65)C2)C1 [Vincristine, leurocristine] | could hardly be treated, if at all | 4 | 3 | more active both in animal tests, and, primarily, in human therapy | could hardly be treated, if at all | could hardly be treated, if at all
2 | CC[C@]1(O)C[C@@H]2CN(CCc3c([nH]c4ccccc34)[C@@](C(=O)OC)(c3cc4c(cc3OC)N(C)[C@H]3[C@@](O)(C(=O)OC)[C@H](OC(C)=O)[C@]5(CC)C=CCN6CC[C@]43[C@@H]65)C2)C1 [Vinblastine, vincaleucoblastine] | could hardly be treated, if at all | 7.6 | 15 | – | could hardly be treated, if at all | could hardly be treated, if at all
